Each structure is given as a SMILES string.

The text below walks through data of patent publication US9751861B2, “N1-(3,3,3-trifluoro-2-hydroxo-2-methylpropionyl)-piperidine derivatives as inhibitors of pyruvate dehydrogenase kinase” (MERCK PATENT GMBH, priority 2013, dated 2017).

One test concerns the target T1, PDHK2 (Homo sapiens, UniProt Q15119).
T1 construct: purchased Carna Bioscience
As to the kind of experiment: Biochemical activity testing of PDHK2: PDC inactivation assay. As to conditions: human rec PDHK2, PDC from porcine heart, ATP 5 μM; read-out: IC50 PDHK2 (enzyme assay). From the text: Biochemical Activity Testing of PDHK2: PDC Inactivation Assay
The biochemical activity assay for PDHK2 is based on the inactivation of PDC through phosphorylation by PDHK2. The assay is run in two steps: the enzymatic PDHK2 reaction in which isolated PDC is phosphorylated by PDHK2 with ATP as co-substrate and the PDC activity assay in which pyruvate and NAD are converted to acetyl-CoA and NADH. The PDC activity correlates to the increase in NADH and thereby is detectable directly via the increasing fluorescence signal (Exc 340 nm, Em 450 nm). Inhibition of PDHK2 results in a lower phosphorylation status and thereby a less decrease in activity of PDC and a stronger increase in NADH fluorescence signal.
The PDC inactivation assay is performed in Greiner 384-well microtiter plates and is used for high throughput screen. 4 μl of PDHK2 (human, rec, Carna Bioscience, 10 ng/μl-137 nM final concentration) and PDC (isolated from porcine heart, Sigma-Aldrich, 20 mU/ml final concentration) are incubated in the absence or presence of the test compound (10 dilution concentrations) for 30 min at room temperature in kinase buffer (15 mM potassium phosphate buffer, pH 7.0, 60 mM KCl, 1.5 mM DTT, 2.5 mM MgCl2, 0.0125% (w/v) BSA, 0.125% Pluronic F-68). The kinase reaction is started by the addition of 4 μl ATP substrate solution (fc 5 μM in kinase buffer). After 30 min incubation at 37° C. 40 μl of PDC reaction solution (100 mM Tris/HCl, pH 7.8, 0.5 mM EDTA, 1 mM MgCl2, 50 mM NaF, 0.25 mM Coenzyme A, 5 mM pyruvate, 1 mM NAD, 5 mM DTT, […] thiamine pyrophosphate) is added. The first fluorescence measurement is performed on a Perkin Elmer Envision (Exc 340 nm, Em 450 nm). The reaction is incubated for 45 min at room temperature. Afterwards a second fluorescence measurement is performed and the PDC activity is calculated by the difference between both measurements. As full value for the PDHK2 assay the inhibitor-free PDHK2 reaction is used. The pharmacological zero value used is DCA (Sigma-Aldrich) in a final concentration of 3 mM. The inhibitory values (IC50) were determined using either the program Symyx Assay Explorer® or Condosseo® from GeneData.

A further test addresses T2, human PDHK2 (12-407) (Homo sapiens, UniProt Q15119).
T2 construct: The human PDHK2 (12-407) was produced in E. coli; His-tag (cleaved yes); made in house; host or cells: E. coli
The test can be described thus: Isothermal titration calorimetry (ITC) binding. To be noted: 30° C., pH 7.5. As to the method: Isothermal Titration Calorimetry
ITC measurements were performed with a VP-ITC micro calorimeter (Microcal, LLC/GE Healthcare Bio-Sciences AB, Uppsala, Sweden). In general titrations were performed by titrating the protein (50 μM) to the test compound (5 μM) in 12 μl injections. All binding experiments were carried out at 30° C. In general the test compounds were diluted form DMSO stock solutions into the measurement buffer with a maximum final concentration of 1% DMSO. The measurement buffer was 20 mM HEPES, 135 mM KCl, 1 mM TCEP, 2 mM MgCl2, 15 mM NaH2PO4, pH 7.5. The human PDHK2 (12-407) was produced in E. coli as his-tagged protein and purified by affinity chromatography. The tag was removed by side specific proteolysis. Before titration the protein buffer was changed to the measurement buffer containing the same DMSO concentration as the test compound dilution. ITC data analysis was performed using Origin 7 calorimetry software from the same supplier. For most measurements a binding model of one binding site was assumed. According to the applied mathematical model it is possible to calculate the binding constant (KA), the observed binding enthalpy (ΔH^obs) as well as the stoichiometry (N) of the formed complex. Preceding analysis the raw data was corrected for the heats of dilution by extrapolating from the saturation value from the end of titration. In order to allow for direct comparison between the respective experimental series and protein preparations the protein concentration was corrected by referencing titrations to a well behaved standard inhibitor. The apparent stoichiometry values defined the fraction of binding competent protein and compensated for relative errors in protein concentration measurements. This corrected protein concentration was used to set up ITC experiment series with test compounds. Any deviations from ideal 1:1 stoichiometry observed here were attributed to errors in compound concentration. This nominal compound concentration was corrected as well to achieve 1:1 stoichiometry in the fit.

As for `C[C@@](O)(C(=O)N1CCC(c2nncn2-c2ccc(F)cc2)CC1)C(F)(F)F` [Compound A71, (R)-3,3,3-Trifluoro-1-{4-[4-(4-fluoro-phenyl)-4H-[1,2,4]triazol-3-yl]-piperidin-1-yl}-2-hydroxy-2-methyl-propan-1-one], at PDHK2, the IC50 lay within 0.3 to 3 µM. The molecule also showed a Kd on human PDHK2 (12-407) of 0.3 to 3 µM. Consider `Cn1nccc1C1CCN(C(=O)[C@@](C)(O)C(F)(F)F)CC1` [Compound A52, (R)-3,3,3-Trifluoro-2-hydroxy-2-methyl-1-[4-(2-methyl-2H-pyrazol-3-yl)piperidin-1-yl]-propan-1-one], for which, at PDHK2, the IC50 fell in the range of 0.3 to 3 µM. The molecule further registered a Kd at human PDHK2 (12-407) of 0.3 to 3 µM. Consider `COc1ccc(-n2ccc(C3CCN(C(=O)[C@@](C)(O)C(F)(F)F)CC3)n2)nn1` [Compound A105, (R)-3,3,3-Trifluoro-2-hydroxy-1-{4-[1-(6-methoxy-pyridazin-3-yl)-1H-pyrazol-3-yl]-piperidin-1-yl}-2-methyl-propan-1-one], for which the 50% inhibitory concentration (IC50) at PDHK2 was 0.3 to 3 µM. Further, the Kd at human PDHK2 (12-407) lay in the range of 0.3 to 3 µM.

Turning to `C[C@@](O)(C(=O)N1CCC(c2ccnn2-c2ccon2)CC1)C(F)(F)F` [Compound A122, (R)-3,3,3-Trifluoro-2-hydroxy-1-[4-(2-isoxazol-3-yl-2H-pyrazol-3-yl)-piperidin-1-yl]-2-methyl-propan-1-one], at PDHK2, the IC50 is 0.3 to 3 µM. The Kd on human PDHK2 (12-407) is 0.3 to 3 µM.

As for `C[C@@](O)(C(=O)N1CCC(c2ccnn2-c2ccc(C#N)nc2)CC1)C(F)(F)F` [Compound A81, 5-{5-[1-((R)-3,3,3-Trifluoro-2-hydroxy-2-methyl-propionyl)-piperidin-4-yl]-pyrazol-1-yl}-pyridine-2-carbonitrile], on PDHK2, the IC50 is 0.3 to 3 µM. Regarding `CC(C)Cn1ccc(C2CCN(C(=O)[C@@](C)(O)C(F)(F)F)CC2)n1` [Compound A114, (R)-3,3,3-Trifluoro-2-hydroxy-1-[4-(1-isobutyl-1H-pyrazol-3-yl)-piperidin-1-yl]-2-methyl-propan-1-one], the IC50 at PDHK2 was in the range of 0.3 to 3 µM. Still for that read-out and setting: as for `CN1CCC(n2nccc2C2CCN(C(=O)[C@@](C)(O)C(F)(F)F)CC2)CC1` [Compound A75, (R)-3,3,3-Trifluoro-2-hydroxy-2-methyl-1-{4-[2-(1-methyl-piperidin-4-yl)-2H-pyrazol-3-yl]-piperidin-1-yl}-propan-1-one], the figure is 3 to 50 µM; as for `Cn1ccc(C2CCN(C(=O)[C@@](C)(O)C(F)(F)F)CC2)n1` [Compound A99, (R)-3,3,3-Trifluoro-2-hydroxy-2-methyl-1-[4-(1-methyl-1H-pyrazol-3-yl)piperidin-1-yl]-propan-1-one], 3 to 50 µM; as for `C[C@@](O)(C(=O)N1CCC(c2nncn2-c2ccc(Cl)cc2)CC1)C(F)(F)F` [Compound A73, (R)-1-{4-[4-(4-Chloro-phenyl)-4H-[1,2,4]triazol-3-yl]-piperidin-1-yl}-3,3,3-trifluoro-2-hydroxy-2-methyl-propan-1-one], 0.3 to 3 µM. Consider `C[C@@](O)(C(=O)N1CCC(c2ccnn2-c2ccccc2C(F)(F)F)CC1)C(F)(F)F` [Compound A89, (R)-3,3,3-Trifluoro-2-hydroxy-2-methyl-1-[4-[2-[2-(trifluoromethyl)phenyl]-2H-pyrazol-3-yl]-1-piperidyl]propan-1-one], for which the 50% inhibitory concentration (IC50) at PDHK2 fell in the range of 0.3 to 3 µM. Same read-out and setting: as for `C[C@@](O)(C(=O)N1CCC(c2nccn2-c2ccc(Cl)cc2)CC1)C(F)(F)F` [Compound A69, (R)-1-{4-[1-(4-Chloro-phenyl)-1H-imidazol-2-yl]-piperidin-1-yl}-3,3,3-trifluoro-2-hydroxy-2-methyl-propan-1-one], the figure is 0.3 to 3 µM; as for `CC(C)Cn1nccc1C1CCN(C(=O)[C@@](C)(O)C(F)(F)F)CC1` [Compound A76, (R)-3,3,3-Trifluoro-2-hydroxy-1-[4-(2-isobutyl-1H-pyrazol-3-yl)-1-piperidyl]-2-methyl-propan-1-one], 3 to 50 µM. The same measure, in the same setting: as for `C[C@@](O)(C(=O)N1CCC(c2ccnn2-c2ccc(C(F)(F)F)cn2)CC1)C(F)(F)F` [Compound A84, (R)-3,3,3-Trifluoro-2-hydroxy-2-methyl-1-{4-[2-(5-trifluoromethyl-pyridin-2-yl)-2H-pyrazol-3-yl]-piperidin-1-yl}-propan-1-one], the figure is 0.3 to 3 µM; as for `Cc1cc(C2CCN(C(=O)[C@@](C)(O)C(F)(F)F)CC2)nn1-c1ccccc1` [Compound A47, (R)-1-[4-(5-Methyl-1-phenyl-1H-pyrazol-3-yl)-piperidin-1-yl]-3,3,3-trifluoro-2-hydroxy-2-methyl-propan-1-one], 3 to 50 µM. The same measure, in the same setting: as for `C[C@H]1CN(C(=O)[C@@](C)(O)C(F)(F)F)CC[C@H]1c1ccn(-c2ccc(F)cc2)n1` [Compound A45, (R)-3,3,3-Trifluoro-1-{(3R,4R)-4-[1-(4-fluoro-phenyl)-1H-pyrazol-3-yl]-3-methyl-piperidin-1-yl}-2-hydroxy-2-methyl-propan-1-one], the figure is 3 to 50 µM; as for `C[C@@](O)(C(=O)N1CCC(c2ccn[nH]2)CC1)C(F)(F)F` [Compound A104, (R)-3,3,3-Trifluoro-2-hydroxy-2-methyl-1-[4-(2H-pyrazol-3-yl)-piperidin-1-yl]-propan-1-one], 3 to 50 µM; as for `Cc1cc(C2CCN(C(=O)[C@@](C)(O)C(F)(F)F)CC2)nn1-c1ccc(F)cc1` [Compound A40, (R)-1-{4-[1-(4-Fluoro-phenyl)-5-methyl-1H-pyrazol-3-yl]-piperidin-1-yl}-3,3,3-trifluoro-2-hydroxy-2-methyl-propan-1-one], 0.3 to 3 µM. `C[C@@](O)(C(=O)N1CCC(c2ccn(-c3ncc(F)cc3F)n2)CC1)C(F)(F)F` [Compound A109, (R)-1-{4-[1-(3,5-Difluoro-pyridin-2-yl)-1H-pyrazol-3-yl]-piperidin-1-yl}-3,3,3-trifluoro-2-hydroxy-2-methyl-propan-1-one]: the IC50 at PDHK2 was 0.3 to 3 µM. In the case of `C[C@@](O)(C(=O)N1CCC(c2ccn(-c3ncc(Cl)cn3)n2)CC1)C(F)(F)F` [Compound A103, (R)-1-{4-[1-(5-Chloro-pyrimidin-2-yl)-1H-pyrazol-3-yl]-piperidin-1-yl}-3,3,3-trifluoro-2-hydroxy-2-methyl-propan-1-one], the IC50 on PDHK2 was 3 to 50 µM. Take `COc1cc(F)ccc1-n1nccc1C1CCN(C(=O)[C@@](C)(O)C(F)(F)F)CC1` [Compound A90, (R)-3,3,3-Trifluoro-1-{4-[2-(4-fluoro-2-methoxy-phenyl)-2H-pyrazol-3-yl]-piperidin-1-yl}-2-hydroxy-2-methyl-propan-1-one]: on PDHK2, the concentration for half-maximal inhibition (IC50) was in the range of 0.3 to 3 µM.

For `Cc1ccc(-n2nncc2C2CCN(C(=O)[C@@](C)(O)C(F)(F)F)CC2)cc1` [Compound A59, (R)-3,3,3-Trifluoro-2-hydroxy-2-methyl-1-[4-(3-p-tolyl-3 H-[1,2,3]triazol-4-yl)piperidin-1-yl]-propan-1-one], the half-inhibitory concentration (IC50) at PDHK2 is 0.3 to 3 µM. With `C[C@@](O)(C(=O)N1CCC(c2ccnn2C2CCCC2)CC1)C(F)(F)F` [Compound A51, (R)-1-[4-(2-Cyclopentyl-2H-pyrazol-3-yl)-piperidin-1-yl]-3,3,3-trifluoro-2-hydroxy-2-methyl-propan-1-one], on PDHK2, the IC50 lay within 0.3 to 3 µM.
